A word on the IC50: it is the midpoint of a concentration-inhibition curve.

The experiment relates to RAW264.7. Kind of experiment: Antiinflammatory activity in mouse RAW264.7 cells assessed as reduction in LPS-induced NO production pretreated for 30 mins followed by LPS stimulation for 24 hrs by Griess assay. It counts as functional, cell-based.

Where only a bound is given, the exact number is not on record here.

With `O=c1ccc2ccccc2[nH]1`, the IC50 was over 10 µM. Regarding `C[S+]([O-])C[C@H]1O[C@@H](n2cnc3c(N)ncnc32)[C@H](O)[C@@H]1O` (some centres not stated), the IC50 is over 10 µM. For `COCc1ccc(C=O)n1CCCC(=O)O`, the IC50 was over 10 µM. With `O=C(O)c1c[nH]c2ccccc12` the figure was over 10 µM; with `COc1cc2c(cc1O)CC1c3c(cc(OC)c(OC)c3-2)CCN1C` (configuration not stated), over 10 µM; with `COc1c(O)cc2c3c1-c1ccccc1CC3N(C)CC2` (configuration not stated), over 10 µM. The figure for `COc1cc(CC2c3cc(O)c(OC)cc3CCN2C)ccc1O` (configuration not stated) is over 10 µM; for `COc1c(O)cc2c3c1-c1ccccc1CC3NCC2` (configuration not stated) it is over 10 µM; for `O=C(NC[C@@H](O[C@@H]1O[C@H](CO)[C@@H](O)[C@H](O)[C@H]1O)c1ccccc1)c1ccccc1` it is over 10 µM. The figure for `COc1cc2c(cc1O)CC1c3c(cc(OC)c(O)c3-2)CCN1C` (configuration not stated) is over 10 µM; for `O=C(NC[C@@H](O)c1ccccc1)c1ccc(O)cc1` it is over 10 µM.

`COc1cc2c(cc1O)CC1NCCc3cc(OC)c(OC)c-2c31` (configuration not stated): the IC50 is over 10 µM. For `COc1cc2c(cc1O)CC1NCCc3cc(OC)c(O)c-2c31` (configuration not stated), the IC50 is over 10 µM. With `O[C@]12CO[C@@H](Cc3nccc4c3[nH]c3ccccc34)[C@H]1O2` the figure was over 10 µM. The figure for `O=C(NC[C@@H](O[C@@H]1O[C@H](CO)[C@@H](O)[C@H](O)[C@H]1O)c1ccccc1)c1cccc(O)c1` is over 10 µM; for `Nc1ncnc2c1ncn2[C@@H]1O[C@H](CO)[C@@H](O)[C@H]1O` [ADENOSINE] it is over 10 µM; for `C[C@@H]1C[C@H]2[C@@H]3CCC4=CC(=O)C=C[C@]4(C)[C@@]3(F)[C@@H](O)C[C@]2(C)[C@@]1(O)C(=O)CO` [DEXAMETHASONE] it is 7 µM.

In the case of `NC(=O)c1cccnc1` [NIACINAMIDE], the IC50 is over 10 µM. With `COc1c(O)cc2c3c(cc4ccccc4c13)NC(=O)C2=O` [NORARISTOLODIONE] the figure was over 10 µM; with `COc1cc2c3c(c1OC)-c1ccccc1CC3NCC2` (configuration not stated) [NORNUCIFERINE], over 10 µM; with `OCc1ccc(-c2nccc3c2[nH]c2ccccc23)o1` [PERLOLYRIN], 8.7 µM. The figure for `O=c1ccn([C@@H]2O[C@H](CO)[C@@H](O)[C@H]2O)c(=O)[nH]1` [URIDINE] is over 10 µM.
